Source: patent US8338430B2, “N-substituted piperazines” (Dow AgroSciences, LLC., priority 2005, dated 2012)

Legend:
Format in all cases: in vivo
[1] = system: fruit fly (Drosophila melanogaster) adults; assay: Adult fruit fly mortality on artificial diet (DROSME); conditions: 72 h, 4000 μg/ml, mortality three days after treatment, read-out: DROSME: % mortality against adult fruit fly on artificial diet
Method: (§1) The compounds identified in TABLE 2 were prepared using the procedures illustrated in the previous examples and these compounds were tested against beet armyworm, mosquito, fruit fly, and cotton aphid using protocols described after.
(§2) Compounds were evaluated on mosquito (Aedes aegypti) larvae, beet armyworm (Spodoptera exigua) larvae, fruit fly (Drosophila melanogaster) adults and cotton aphid (Aphis gossypi). Newly hatched mosquito larvae (about 50 larvae/well) in 96-well microtiter plates in 230 ul of water containing powdered liver/yeast extract (1 gr/100 ml) were treated with 20 ppm solution of the test compound. Following treatment the plates were covered with a lid and mortality was determined three days after treatment. Beet armyworm eggs (about 5 per well) were placed on artificial diet (in a 96-well microtiter plate) treated with a 4000 ppm solution of a test compound in combination with piperonyl butoxide (in approximate ratio of 1:4). After infestation, the plates were covered with a lid and mortality was determined seven days following treatment. Five-day old fruit fly adults (about 5/well) were placed in deep-well microtiter plates containing 250 ul/well of a 2% agar-10% sucrose mixture that had been treated with a 4000 ppm solution of a test compound. Following infestation, the plates were covered with a lid and mortality was determined three days after treatment. Treatments for the mosquito and armyworm were replicated six times each, that of the fruit fly three times each.

[2] = system: cotton aphid (Aphis gossypi); assay: Cotton aphid foliar spray test on squash (CA 200); conditions: 72 h, squash cotyledons, 3 days, Corrected % Control (Abbott), read-out: CA 200: % control against cotton aphid in foliar spray tests
Method: The compounds identified in TABLE 2 were prepared using the procedures illustrated in the previous examples and these compounds were tested against beet armyworm, mosquito, fruit fly, and cotton aphid using protocols described after. […]
Squash with fully expanded cotyledon leaves were trimmed to one cotyledon per plant and infested with cotton aphid (wingless adult and nymph) 1 day prior to chemical application.
Each plant is examined before chemical application to ensure proper infestation (ca. 30-70 aphids per plant). Compounds (3 mg) were dissolved in 3 mL of acetone:methanol (50:50) solvent, forming stock solutions of 1000 ppm. The stock solutions were then diluted with 0.025% Tween 20 (in H2O) to make […]. A hand-held Devilbiss sprayer was used to apply the spray solutions until runoff to both sides of the squash cotyledon leaves. Four plants (4 replications) were used for each concentration of each compound. Reference plants (solvent check) were sprayed with 0.025% Tween 20 only. Treated plants were held in a holding room for 3 days at approximately 23° C. and 40% RH before the number of live aphids on each plant was recorded. Insecticidal activity was measured by Corrected % Control using Abbott's correction formula and presented in TABLE 2: Corrected % Control=100*(X−Y)/X • where X=No. of live aphids on solvent check plants • Y=No. of live aphids on treated plants

[3] = system: Leptosphaeria nodorum=Stagnospora nodorum; assay: Fungicidal test for LEPTNO, glume blotch of wheat, one day protectant; conditions: 24 h, wheat plants (variety Yuma), sprayed one day before inoculation
Method: (§3) The compounds identified in Table 4 were prepared using the procedures illustrated in the previous examples and these compounds were tested against wheat glume blotch and wheat leaf blotch using the protocols described herein. Fungicidal Test for […] Each pot contained 3-20 seedlings. These plants were sprayed until wet with the formulated test compound at a rate of 25 ppm. On the following day, the leaves were inoculated with an aqueous spore suspension of Leptosphaeria nodorum and the plants were kept in high humidity (one day in a dark dew chamber followed by four to seven days in a lighted dew chamber) to permit spores to germinate and infect the leaf. The plants were then transferred to a greenhouse until disease developed on untreated control plants.

[4] = system: Mycosphaerella graminicola=Septoria tritici; assay: Fungicidal test for SEPTTR, speckled leaf blotch of wheat, one day protectant; conditions: 24 h, wheat plants (variety Monon), sprayed one day before inoculation
Method: as §3, with “Speckled Leaf Blotch of Wheat (Mycosphaerella graminicola=Septoria tritici; Bayer code […]): Wheat plants (variety Monon) were grown from seed in a greenhouse in 50% pasteurized soil/50% soil-less mix until the first true leaf was fully expanded, with 3-8 seedlings per pot.” for “Each pot contained 3-20 seedlings.”, “Septoria tritici” for “Leptosphaeria nodorum”, “leaf” for “leaf.”

[5] = system: mosquito (Aedes aegypti) larvae; assay: Mosquito larvae mortality (AEDSAE); conditions: 72 h, 20 μg/ml, mortality three days after treatment, read-out: AEDSAE: % mortality against mosquito larvae
Method: as §1, §2

[6] = system: beet armyworm (Spodoptera exigua) larvae; assay: Beet armyworm mortality on artificial diet (LAPHEG); conditions: 168 h, 4000 μg/ml, with piperonyl butoxide (approx. 1:4), mortality seven days after treatment, read-out: LAPHEG: % mortality against beet armyworm on artificial diet
Method: as §1, §2

SMILES | mortality at 4000 µg/mL [1] [%] | pest or weed control at 200 ppm [2] [%] | pest or weed control at 25 ppm [3] [%] | pest or weed control at 25 ppm [4] [%] | mortality at 20 µg/mL [5] [%] | mortality at 4000 µg/mL [6] [%]
FC(F)(F)c1ccccc1CCN1CCN(Cc2ccc3ccccc3c2)CC1 [Compound 80] | 1 to 25 | 26 to 49 | 50 to 100 | 50 to 100 | 1 to 25 | 26 to 49
FC(F)(F)c1ccccc1CCN1CCN(Cc2ccc(Cl)s2)CC1 [Compound 81] | 1 to 25 | 50 to 100 | 50 to 100 | 50 to 100 | 1 to 25 | 1 to 25
FC(F)(F)c1ccccc1CCN1CCN(Cc2csc3ccc(Cl)cc23)CC1 [Compound 88] | 1 to 25 | 50 to 100 | 1 to 25 | 50 to 100 | 1 to 25 | 1 to 25
c1ccc(OCCN2CCN(Cc3ccccc3-c3ccccc3)CC2)cc1 [Compound 92] | 26 to 49 | 1 to 25 | 50 to 100 | 1 to 25 | 1 to 25 | 1 to 25
c1ccc(CCN2CCN(Cc3ccccc3-c3ccccc3)CC2)cc1 [Compound 93] | 26 to 49 | 1 to 25 | 1 to 25 | 50 to 100 | 1 to 25 | 1 to 25
c1ccc(COc2ccc(CN3CCN(CCOc4ccccc4)CC3)cc2)cc1 [Compound 111] |  |  | 50 to 100 | 50 to 100 |  | 
c1ccc(CCN2CCN(Cc3ccc(OCc4ccccc4)cc3)CC2)cc1 [Compound 112] |  |  | 1 to 25 | 50 to 100 |  | 
O=C(C1CC1)N1CCN(Cc2ccc(OCc3ccccc3)cc2)CC1 [Compound 114] |  |  | 1 to 25 | 50 to 100 |  | 
c1ccc(CCCN2CCN(Cc3ccc4ccccc4c3)CC2)cc1 [Compound 118] |  |  | 50 to 100 | 50 to 100 |  | 
FC(F)(F)c1ccccc1CCN1CCN(Cc2cccc(-n3cccc3)c2)CC1 [Compound 119] |  |  | 50 to 100 | 26 to 49 |  | 
CC(c1ccccc1)N1CCN(Cc2ccc3ccccc3c2)CC1 (stereo not shown) [Compound 187] |  |  | 50 to 100 | 50 to 100 |  | 
CC(c1ccccc1)N1CCN(Cc2cccc(-n3cccc3)c2)CC1 (stereo not shown) [Compound 234] |  |  | 50 to 100 | 1 to 25 |  | 
CC(c1ccccc1)N1CCN(Cc2csc3ccc(Cl)cc23)CC1 (stereo not shown) [Compound 236] |  |  | 50 to 100 | 1 to 25 |  | 
